Literature values, collected in patent publication US20030004141A1, “Medical devices, compositions and methods for treating vulnerable plaque” (priority 2001, published 2003).

Conditions: general statement from cited pre-clinical and clinical studies

CNC(=O)[C@@H](NC(=O)[C@H](CC(C)C)[C@H](O)C(=O)NO)C(C)(C)C [marimastat]
in vivo toxicity: minimal in vivo toxicity
